Source: ChEMBL document CHEMBL1124634, “Synthesis and antirhinovirus activity of 6-(dimethylamino)-2-(trifluoromethyl)-9-(substituted benzyl)-9H-purines” (J Med Chem, 1989)
Values belong to the molecule of their own block, whether it stands above or below them.

Assays:
Human rhinovirus sp. [1] = test: Antiviral activity against rhinoviral-1B serotype in a plaque inhibition assay using monolayers of M-HeLa cells; format: functional, organism-based
Human rhinovirus sp. [2] = test: Antiviral activity against rhinoviral 9 serotype in a plaque inhibition assay using monolayers of M-HeLa cells; format: functional, organism-based
Human rhinovirus sp. [3] = test: Antiviral activity against rhinoviral 30 serotype in a plaque inhibition assay using monolayers of M-HeLa cells; format: functional, organism-based
Human rhinovirus sp. [4] = test: Antiviral activity against rhinoviral 15 serotype in a plaque inhibition assay using monolayers of M-HeLa cells; format: functional, organism-based
Human rhinovirus sp. [5] = test: Percent inhibitory activity at 8 uM against rhinoviral 19s erotype in a plaque inhibition assay using monolayers of M-HeLa cells; format: functional
Human rhinovirus sp. [6] = test: Antiviral activity against rhinoviral 8 serotype in a plaque inhibition assay using monolayers of M-HeLa cells; format: functional, organism-based
Human rhinovirus sp. [7] = test: Antiviral activity against rhinoviral 12 serotype in a plaque inhibition assay using monolayers of M-HeLa cells; format: functional, organism-based
Human rhinovirus sp. [8] = test: Antiviral activity against rhinoviral 31 serotype in a plaque inhibition assay using monolayers of M-HeLa cells; format: functional, organism-based
Human rhinovirus sp. [9] = test: Antiviral activity against rhinoviral 21 serotype in a plaque inhibition assay using monolayers of M-HeLa cells; format: functional, organism-based
Human rhinovirus sp. [10] = test: Percent inhibitory activity at 8 uM against rhinoviral 5 serotype in a plaque inhibition assay using monolayers of M-HeLa cells; format: functional
Human rhinovirus sp. [11] = test: Antiviral activity against rhinoviral 14 serotype in a plaque inhibition assay using monolayers of M-HeLa cells; format: functional, organism-based
Human rhinovirus sp. [12] = test: Antiviral activity against rhinoviral 18 serotype in a plaque inhibition assay using monolayers of M-HeLa cells; format: functional, organism-based
Human rhinovirus sp. [13] = test: Antiviral activity against rhinoviral 29 serotype in a plaque inhibition assay using monolayers of M-HeLa cells; format: functional, organism-based
Human rhinovirus sp. [14] = test: Antiviral activity against rhinoviral 4 serotype in a plaque inhibition assay using monolayers of M-HeLa cells; format: functional, organism-based
Human rhinovirus sp. [15] = test: Antiviral activity against rhinoviral 3 serotype in a plaque inhibition assay using monolayers of M-HeLa cells; format: functional, organism-based
Human rhinovirus sp. [16] = test: Percent inhibitory activity at 8 uM against rhinoviral 13 serotype in a plaque inhibition assay using monolayers of M-HeLa cells; format: functional
Human rhinovirus sp. [17] = test: Antiviral activity against rhinoviral 2 serotype in a plaque inhibition assay using monolayers of M-HeLa cells; format: functional, organism-based
Human rhinovirus sp. [18] = test: Antiviral activity against rhinoviral 16 serotype in a plaque inhibition assay using monolayers of M-HeLa cells; format: functional, organism-based
Human rhinovirus sp. [19] = test: Antiviral activity against rhinoviral-1A serotype in a plaque inhibition assay using monolayers of M-HeLa cells; format: functional, organism-based
Human rhinovirus sp. [20] = test: Percent inhibitory activity at 8 uM against rhinoviral 15 serotype in a plaque inhibition assay using monolayers of M-HeLa cells; format: functional
Human rhinovirus sp. [21] = test: Percent inhibitory activity at 8 uM against rhinoviral 21 serotype in a plaque inhibition assay using monolayers of M-HeLa cells; format: functional
Human rhinovirus sp. [22] = test: Antiviral activity against rhinoviral 5 serotype in a plaque inhibition assay using monolayers of M-HeLa cells; format: functional, organism-based
Human rhinovirus sp. [23] = test: Percent inhibitory activity at 8 uM against rhinoviral 14 serotype in a plaque inhibition assay using monolayers of M-HeLa cells; format: functional
Human rhinovirus sp. [24] = test: Percent inhibitory activity at 8 uM against rhinoviral 29 serotype in a plaque inhibition assay using monolayers of M-HeLa cells; format: functional
Human rhinovirus sp. [25] = test: Antiviral activity against rhinoviral-19 serotype in a plaque inhibition assay using monolayers of M-HeLa cells; format: functional, organism-based
Human rhinovirus sp. [26] = test: Percent inhibitory activity at 8 uM against rhinoviral 4 serotype in a plaque inhibition assay using monolayers of M-HeLa cells; format: functional
Human rhinovirus sp. [27] = test: Percent inhibitory activity at 8 uM against rhinoviral 30 serotype in a plaque inhibition assay using monolayers of M-HeLa cells; format: functional
Human rhinovirus sp. [28] = test: Antiviral activity against rhinoviral-18 serotype in a plaque inhibition assay using monolayers of M-HeLa cells; format: functional, organism-based
Human rhinovirus sp. [29] = test: Percent inhibitory activity at 8 uM against rhinoviral 3 serotype in a plaque inhibition assay using monolayers of M-HeLa cells; format: functional
Human rhinovirus sp. [30] = test: Percent inhibitory activity at 8 uM against rhinoviral 31 serotype in a plaque inhibition assay using monolayers of M-HeLa cells; format: functional

IC50 (Human rhinovirus sp. [1]): 280 µM
SMILES: CN(C)c1nc(C(F)(F)F)nc2c1ncn2Cc1ccccc1[N+](=O)[O-]

IC50 (Human rhinovirus sp. [1]): 135 µM
SMILES: COc1cc(Cl)ccc1Cn1cnc2c(N(C)C)nc(C(F)(F)F)nc21

IC50 (Human rhinovirus sp. [2]): 0.7 µM | IC50 (Human rhinovirus sp. [3]): 4.6 µM | IC50 (Human rhinovirus sp. [4]): 5.7 µM | IC50 (Human rhinovirus sp. [1]): 0.03 µM | IC50 (Human rhinovirus sp. [6]): 8.3 µM | IC50 (Human rhinovirus sp. [7]): 9.5 µM | IC50 (Human rhinovirus sp. [8]): 5.5 µM | IC50 (Human rhinovirus sp. [9]): 5 µM | IC50 (Human rhinovirus sp. [11]): 8.1 µM | IC50 (Human rhinovirus sp. [12]): 7.5 µM | IC50 (Human rhinovirus sp. [13]): 3.2 µM | IC50 (Human rhinovirus sp. [14]): 7.6 µM | IC50 (Human rhinovirus sp. [15]): 8 µM | IC50 (Human rhinovirus sp. [17]): 7.3 µM | IC50 (Human rhinovirus sp. [18]): 1.2 µM | IC50 (Human rhinovirus sp. [19]): 0.76 µM
SMILES: CN(C)c1nc(C(F)(F)F)nc2c1ncn2Cc1ccc(Br)cc1
Inhibition (Human rhinovirus sp. [5]): 27% | Inhibition (Human rhinovirus sp. [10]): 37% | Inhibition (Human rhinovirus sp. [16]): 40%

IC50 (Human rhinovirus sp. [1]): 0.13 µM
SMILES: CN(C)c1nc(C(F)(F)F)nc2c1ncn2Cc1ccc(N)cc1

IC50 (Human rhinovirus sp. [1]): 0.13 µM
SMILES: CN(C)c1nc(C(F)(F)F)nc2c1ncn2Cc1cccc([N+](=O)[O-])c1

IC50 (Human rhinovirus sp. [2]): 1.5 µM | IC50 (Human rhinovirus sp. [3]): 6.6 µM | IC50 (Human rhinovirus sp. [1]): 1 µM | IC50 (Human rhinovirus sp. [6]): 10 µM | IC50 (Human rhinovirus sp. [7]): 10 µM | IC50 (Human rhinovirus sp. [8]): 4.2 µM | IC50 (Human rhinovirus sp. [22]): 11 µM | IC50 (Human rhinovirus sp. [12]): 6.8 µM | IC50 (Human rhinovirus sp. [13]): 2.5 µM | IC50 (Human rhinovirus sp. [14]): 3.7 µM | IC50 (Human rhinovirus sp. [15]): 8 µM | IC50 (Human rhinovirus sp. [17]): 5.2 µM | IC50 (Human rhinovirus sp. [18]): 2.1 µM | IC50 (Human rhinovirus sp. [19]): 2.8 µM
SMILES: CC(C)Oc1ccc(Cn2cnc3c(N(C)C)nc(C(F)(F)F)nc32)cc1
Inhibition (Human rhinovirus sp. [20]): 40% | Inhibition (Human rhinovirus sp. [21]): 40% | Inhibition (Human rhinovirus sp. [5]): 33% | Inhibition (Human rhinovirus sp. [23]): 22% | Inhibition (Human rhinovirus sp. [16]): 39%

IC50 (Human rhinovirus sp. [2]): 2 µM | IC50 (Human rhinovirus sp. [25]): 10 µM | IC50 (Human rhinovirus sp. [1]): 0.12 µM | IC50 (Human rhinovirus sp. [6]): 9.5 µM | IC50 (Human rhinovirus sp. [7]): 7.8 µM | IC50 (Human rhinovirus sp. [8]): 12 µM | IC50 (Human rhinovirus sp. [22]): > 8 µM | IC50 (Human rhinovirus sp. [11]): 9 µM | IC50 (Human rhinovirus sp. [28]): 10 µM | IC50 (Human rhinovirus sp. [17]): 9 µM | IC50 (Human rhinovirus sp. [18]): 1.9 µM | IC50 (Human rhinovirus sp. [19]): 0.82 µM
SMILES: Cc1cc(Cl)ccc1Cn1cnc2c(N(C)C)nc(C(F)(F)F)nc21
Inhibition (Human rhinovirus sp. [24]): 32% | Inhibition (Human rhinovirus sp. [20]): 11% | Inhibition (Human rhinovirus sp. [21]): 22% | Inhibition (Human rhinovirus sp. [26]): 25% | Inhibition (Human rhinovirus sp. [27]): 28% | Inhibition (Human rhinovirus sp. [16]): 23% | Inhibition (Human rhinovirus sp. [29]): 29%

IC50 (Human rhinovirus sp. [1]): 4.6 µM
SMILES: CN(C)c1nc(C(F)(F)F)nc2c1ncn2Cc1cccc(C(=O)O)c1

IC50 (Human rhinovirus sp. [1]): 2.1 µM
SMILES: CCCCOc1ccc(Cn2cnc3c(N(C)C)nc(C(F)(F)F)nc32)cc1

IC50 (Human rhinovirus sp. [1]): 6.9 µM
SMILES: CN(C)c1nc(C(F)(F)F)nc2c1ncn2Cc1ccc(Cl)cc1NC=O

IC50 (Human rhinovirus sp. [1]): 70 µM
SMILES: COc1cc(C)ccc1Cn1cnc2c(N(C)C)nc(C(F)(F)F)nc21

IC50 (Human rhinovirus sp. [1]): 0.3 µM
SMILES: CN(C)c1nc(C(F)(F)F)nc2c1ncn2Cc1cccc(N)c1

IC50 (Human rhinovirus sp. [1]): 0.37 µM
SMILES: CC(=O)Nc1ccc(Cn2cnc3c(N(C)C)nc(C(F)(F)F)nc32)cc1

IC50 (Human rhinovirus sp. [1]): 4.6 µM
SMILES: CN(C)c1nc(C(F)(F)F)nc2c1ncn2Cc1ccc(C(=O)O)cc1

IC50 (Human rhinovirus sp. [1]): 5 µM
SMILES: CCOC(=O)c1ccc(Cn2cnc3c(N(C)C)nc(C(F)(F)F)nc32)cc1

IC50 (Human rhinovirus sp. [1]): 0.25 µM
SMILES: CN(C)c1cccc(Cn2cnc3c(N(C)C)nc(C(F)(F)F)nc32)c1

IC50 (Human rhinovirus sp. [2]): 1.5 µM | IC50 (Human rhinovirus sp. [4]): 5.8 µM | IC50 (Human rhinovirus sp. [1]): 0.17 µM | IC50 (Human rhinovirus sp. [6]): 6.2 µM | IC50 (Human rhinovirus sp. [7]): 5.2 µM | IC50 (Human rhinovirus sp. [22]): > 8 µM | IC50 (Human rhinovirus sp. [11]): 7.1 µM | IC50 (Human rhinovirus sp. [14]): 7.2 µM | IC50 (Human rhinovirus sp. [15]): 14 µM | IC50 (Human rhinovirus sp. [28]): 14 µM | IC50 (Human rhinovirus sp. [17]): 6.5 µM | IC50 (Human rhinovirus sp. [18]): 1.6 µM | IC50 (Human rhinovirus sp. [19]): 2.4 µM
SMILES: CN(C)c1nc(C(F)(F)F)nc2c1ncn2Cc1ccc(Cl)c(N)c1
Inhibition (Human rhinovirus sp. [30]): 29% | Inhibition (Human rhinovirus sp. [24]): 26% | Inhibition (Human rhinovirus sp. [21]): 10% | Inhibition (Human rhinovirus sp. [5]): 40% | Inhibition (Human rhinovirus sp. [27]): 34% | Inhibition (Human rhinovirus sp. [16]): 18%

IC50 (Human rhinovirus sp. [1]): 1.1 µM
SMILES: CN(C)c1nc(C(F)(F)F)nc2c1ncn2Cc1cccc(OCc2ccccc2)c1

IC50 (Human rhinovirus sp. [1]): 0.2 µM
SMILES: CN(C)c1nc(C(F)(F)F)nc2c1ncn2Cc1ccc(CO)cc1

IC50 (Human rhinovirus sp. [1]): 0.17 µM
SMILES: CN(C)c1nc(C(F)(F)F)nc2c1ncn2Cc1ccc(O)cc1

IC50 (Human rhinovirus sp. [1]): 2.6 µM
SMILES: COC(=O)c1cccc(Cn2cnc3c(N(C)C)nc(C(F)(F)F)nc32)c1

IC50 (Human rhinovirus sp. [1]): 0.53 µM
SMILES: CN(C)c1nc(C(F)(F)F)nc2c1ncn2Cc1ccc(Cl)cc1[N+](=O)[O-]

IC50 (Human rhinovirus sp. [1]): 0.1 µM
SMILES: COc1cccc(Cn2cnc3c(N(C)C)nc(C(F)(F)F)nc32)c1
